Data from patent US20250188033A1, “INHIBITOR OF REPLICATION PROTEIN A1 OF TRYPANOSOMA BRUCEI AND METHOD OF USE THEREOF” (Research Foundation of the City University of New York, published 2025).
Like-named read-outs stand apart in the source and are kept apart here.

Experiments:
HeLa cells = assay: ALAMARBLUE cell viability assay of human cells (HeLa); assay type: cell-based
Description: (§1) Human cell lines, HeLa and HEK293 were maintained in Dulbecco's modified MEM (D-MEM, GIBCO) supplemented with 10% fetal bovine serum (GIBCO) at 37° C. with 5% CO2.
(§2) To determine the inhibitory effect of JC-229 on human cells, HeLa and HEK293 cells were suspended in 180 μl D-MEM with 10% FBS and plated at a density of 2×10^4 cells/ml in triplicate. Cells were adhered overnight, and the medium was replaced, and cells were then incubated for 72 hours with increasing concentrations of JC-229 (0.5 μM to 50 μM) and cell viability was determined using the ALAMARBLUE® dye as described above. Percent viability was plotted using GraphPad Prism software. […] The EC50 values were estimated using the concentration of JC-229 that cause 50% reduction of cell viability (inhibitor vs. normalized response, variable slope).

Trypanosoma brucei = assay: ALAMARBLUE cell viability / growth assay of T. brucei cells; assay type: cell-based
Outline: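 Parasites seeded at 1×10^3 cells/ml in triplicate, exposed to compound for 72 h (0.0075% DMSO vehicle). AlamarBlue added for 4-6 h, fluorescence read at 560/590 nm; % viable cells calculated from RFU normalized to DMSO control, EC50 from 0.5-50 μM series.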

T. brucei cells [1] = assay: Immunoblotting of TbRPA1, γH2A and VSG3 protein levels; assay type: cell-based, Trypanosoma brucei; details: 10 μM; for fold increase in the levels of γH2A: relative to untreated, normalized to tubulin
Description: (§3) Without wishing to be bound to any particular theory, if JC-229 indeed binds and inhibits the functions of TbRPA1, as predicted from the structural model, JC-229-treated trypanosome cells should show similar phenotypes to TbRPA1-depleted cells without affecting TbRPA1 protein levels. Wild-type T. brucei cells was treated with 10 μM JC-229 for 48 hours and the cell-cycle profile and efficiency of DNA synthesis was monitored. TbRPA1, γH2A, VSG3, and Tubulin protein levels were also monitored (FIG. 3A, FIG. 3B, FIG. 3C and FIG. 3D).
Cells were harvested at indicated time points and suspended in Laemmli buffer (Bio-Rad) at 0.25 million cells per μl. Denatured proteins from whole cells were separated on a 4-20% gradient SDS-PAGE gel (BioRAD) and transferred to nitrocellulose membrane (GE Healthcare). The membranes were probed with polyclonal antibodies against TbRPA1 (a gift from Bibo Li laboratory) or γH2A (generated by ABclonal for this study), or monoclonal mouse antibodies against VSG3 (Antibody and Bioresource Core facility, MSKCC) or tubulin (Sigma) in 1× PBS with 0.1% Tween 20 and 1% milk (BioRAD) at 4° C. overnight. The membranes were then incubated with secondary antibodies conjugated with Horseradish Peroxidase (HRP) (GE healthcare) for the detection of corresponding proteins using chemiluminescence (Hyglo from Denville Scientific, ChemiDoc Imaging System from BioRAD).

HEK293 cells = assay: ALAMARBLUE cell viability assay of human cells (HEK293); assay type: cell-based
Description: as §1, §2

T. brucei cells [2] = assay: Cell-cycle analysis by PI staining and flow cytometry; assay type: cell-based, Trypanosoma brucei; details: 10 μM
Description: as §3
About 10 million cells were collected after tetracycline induction or after JC-229 treatment. Cells were fixed with ice-cold 70% ethanol and incubated with 50 μg/ml PI (Sigma-Aldrich) and 200 μg/ml RNase A (Sigma-Aldrich) in 1×PBS (Corning) at 37° C. for 30 min in the dark. Samples were analyzed by flow cytometry (FACSVia, BD Biosciences) and FLOWJO®.

TcRPA1 DBD-AB T105S = TcRPA1 DBD-AB T105S (Trypanosoma cruzi, UniProt Q4DXC9 Q4DXC9:1-256, T105S); assay: MST; 10 mM MgCl2, 22 C; JC-229 IC50 159x10^3 nM; details: tags: N-terminal 6xHis, pET28a, E. coli; label: 5' Cy5
HsRPA1 DBD-AB = HsRPA1 DBD-AB (Homo sapiens, UniProt P27694 P27694:181-422); assay: MST; 10 mM MgCl2, 10 mM NaCl, Tris pH 7.5, 22 C; not inhibited by JC-229; details: tags: 6xHis, pET28a (pSR15), E. coli; label: 5' Cy5
Description: (§4) MST experiments were performed on Monolith NT.115 instrument with red filter (Nanotemper Technologies) in MST binding buffer (20 mM Tris, pH 7.5, 10 mM NaCl, 10 mM MgCl₂, 2 mM DTT, 10% glycerol and 0.1 mg/ml BSA) using premium-coated capillaries (Nanotemper Technologies). MST experiments were performed with 40% LED power and 40% MST power at 22° C.
(§5) ssDNA-binding assay: The 5′Cy5 labeled-oligo dT32 was purchased from IDT. Increasing concentrations of purified protein (from 0.06 nM to 2,000 nM for DBD-AB proteins; from 0.02 nM to 800 nM for RPA complexes) were incubated with equal volume (10 μl) of 5′Cy5-labeld oligo dT₃₂ (10 nM final concentration) in MST binding buffer for 15 min at room temperature. Samples were then loaded into MST capillaries.

LmexRPA1 DBD-AB = target: T1, LmexRPA1 DBD-AB (Leishmania mexicana, UniProt E9B001 E9B001:1-258); assay: as above; details: tags: N-terminal 6xHis, pET28a (pSR16), E. coli; label: 5' Cy5
T1 sequence: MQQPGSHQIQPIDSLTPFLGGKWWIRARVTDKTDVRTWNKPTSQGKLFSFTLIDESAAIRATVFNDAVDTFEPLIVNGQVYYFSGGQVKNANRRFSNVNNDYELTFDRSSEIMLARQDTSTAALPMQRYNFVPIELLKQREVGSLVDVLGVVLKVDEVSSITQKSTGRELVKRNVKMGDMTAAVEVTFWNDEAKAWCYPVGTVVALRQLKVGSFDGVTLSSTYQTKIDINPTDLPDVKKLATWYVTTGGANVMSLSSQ
Description: as §4, §5

TbRPA1 DBD-AB W188A [3] = target: T2, TbRPA1 DBD-AB W188A (Trypanosoma brucei, UniProt Q384B5 Q384B5:1-257, W188A); assay: MST; no ssDNA-binding activity; details: tags: 6xHis, pET28a, E. coli; label: 5' Cy5
TbRPA1 DBD-AB F64A [4] = target: T3, TbRPA1 DBD-AB F64A (Trypanosoma brucei, UniProt Q384B5 Q384B5:1-257, F64A); assay: MST; no ssDNA-binding activity; details: tags: 6xHis, pET28a, E. coli; label: 5' Cy5
TcRPA1 DBD-AB = target: T4, TcRPA1 DBD-AB (Trypanosoma cruzi, UniProt Q4DXC9 Q4DXC9:1-256); assay: MST; p171-172 quotes 12.6 nM for the same WT protein; 10 mM MgCl2, 22 C; not inhibited by JC-229; details: tags: N-terminal 6xHis, pET28a (pSR13), E. coli; label: 5' Cy5
T4 sequence: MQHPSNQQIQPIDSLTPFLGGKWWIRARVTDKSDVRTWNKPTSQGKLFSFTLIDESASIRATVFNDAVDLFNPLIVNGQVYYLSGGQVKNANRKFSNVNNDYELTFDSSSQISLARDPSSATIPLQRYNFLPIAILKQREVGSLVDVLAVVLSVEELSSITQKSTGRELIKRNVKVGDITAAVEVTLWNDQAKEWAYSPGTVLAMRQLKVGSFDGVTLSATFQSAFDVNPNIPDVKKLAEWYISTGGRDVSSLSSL
Description: as §4, §5

[5] = target: T5, TbRPA complex (RPA1/RPA2/RPA3) (Trypanosoma brucei, UniProt Q384B5;Q57ZN9;Q38DK0 Q384B5:1-463,Q57ZN9:1-255,Q38DK0:1-127); assay: MST; 10 mM MgCl2, 10 mM NaCl, Tris pH 7.5, 22 C; JC-229 inhibits binding, IC50 24.5 nM; details: tags: 6xHis-thrombin site on RPA1 (pSR8), E. coli; one complex per dT32 stated; label: 5' Cy5
T5 sequence 1: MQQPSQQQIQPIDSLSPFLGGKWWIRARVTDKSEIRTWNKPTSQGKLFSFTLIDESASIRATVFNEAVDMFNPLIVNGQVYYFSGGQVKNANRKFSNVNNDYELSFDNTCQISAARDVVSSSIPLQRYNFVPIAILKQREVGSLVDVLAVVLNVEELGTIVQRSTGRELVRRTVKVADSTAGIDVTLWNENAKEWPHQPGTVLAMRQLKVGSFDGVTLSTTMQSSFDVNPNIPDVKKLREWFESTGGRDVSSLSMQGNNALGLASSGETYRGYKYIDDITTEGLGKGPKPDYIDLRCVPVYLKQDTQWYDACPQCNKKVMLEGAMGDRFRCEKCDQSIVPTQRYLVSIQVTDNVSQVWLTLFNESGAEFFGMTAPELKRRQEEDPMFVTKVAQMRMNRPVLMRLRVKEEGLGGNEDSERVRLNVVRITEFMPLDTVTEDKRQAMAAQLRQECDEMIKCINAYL
T5 sequence 2: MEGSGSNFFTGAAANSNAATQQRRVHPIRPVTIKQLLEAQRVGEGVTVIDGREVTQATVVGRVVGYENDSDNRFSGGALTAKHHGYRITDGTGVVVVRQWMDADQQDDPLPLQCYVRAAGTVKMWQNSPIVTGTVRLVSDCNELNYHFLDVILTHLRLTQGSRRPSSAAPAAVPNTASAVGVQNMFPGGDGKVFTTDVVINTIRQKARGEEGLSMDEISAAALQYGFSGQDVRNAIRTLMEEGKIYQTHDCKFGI
T5 sequence 3: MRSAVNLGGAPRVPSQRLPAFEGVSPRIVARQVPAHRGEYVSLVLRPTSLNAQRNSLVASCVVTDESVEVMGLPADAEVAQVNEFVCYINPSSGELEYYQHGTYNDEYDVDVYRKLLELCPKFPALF
Description: FIG. 5C are graphs showing recombinant TbRPA complex was 2-fold serially diluted from 400 nM concentration and these were incubated with 10 nM 5′Cy5-dT₃₂. Binding was analyzed by MST (left). Serial dilutions of JC-229 were pre-incubated with 25 nM TbRPA complex and then with 10 nM 5′Cy5-dT₃₂. Inhibition of binding was analyzed by MST (right).
as §4, §5

TbRPA1 DBD-AB W188A [6] = target: T2, TbRPA1 DBD-AB W188A; assay: EMSA; no ssDNA-binding activity; details: tags: 6xHis, pET28a, E. coli; label: 5' IRDye800
TbRPA1 DBD-AB F64A [7] = target: T3, TbRPA1 DBD-AB F64A; assay: EMSA; no ssDNA-binding activity; details: tags: 6xHis, pET28a, E. coli; label: 5' IRDye800
TbRPA1 DBD-AB S105T = TbRPA1 DBD-AB S105T (Trypanosoma brucei, UniProt Q384B5 Q384B5:1-257, S105T); assay: EMSA; 10 mM MgCl2, RT; not inhibited by JC-229; details: tags: 6xHis, pET28a, E. coli; label: 5' IRDye800

Chain of HsRPA1 DBD-AB (P27694 181-422, one chain of several): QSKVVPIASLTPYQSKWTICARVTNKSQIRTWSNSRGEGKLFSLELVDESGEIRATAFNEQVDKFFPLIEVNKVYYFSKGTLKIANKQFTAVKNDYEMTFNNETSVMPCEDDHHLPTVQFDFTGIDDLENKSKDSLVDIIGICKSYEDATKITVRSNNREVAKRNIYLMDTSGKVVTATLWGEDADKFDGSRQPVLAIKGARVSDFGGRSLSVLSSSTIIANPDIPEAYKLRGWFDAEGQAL

Molecule: Cc1ccc(C(=O)Nc2ccc(Cl)c(Cl)c2)cc1S(=O)(=O)Nc1ccc(Cl)c(Cl)c1 [JC-229, N-(3,4-dichlorophenyl)-3-(N-(3,4-dichlorophenyl)sulfamoyl)-4-methylbenzamide]
- EC50 (HeLa cells; 0.5 to 50 μM, 72 hours, estimated, curve did not reach bottom plateau): 32100 nM
- inhibition at 6.5 µM (HeLa cells; at 6.5 μM (EC50 to T. brucei)): < 20%
- inhibition at 50 µM (HeLa cells; at 50 μM, the maximum concentration): < 100%
- EC50 (Trypanosoma brucei; Trypanosoma brucei, 72 h, read-out: EC50 (T. brucei viability), T. brucei, 0.5 to 50 μM, 72 hours): 6600 nM
- inhibition at 2 µM (Trypanosoma brucei; Trypanosoma brucei, T. brucei, 2 μM, 72 hours, normalized to DMSO control): 24%
- inhibition at 5 µM (Trypanosoma brucei; Trypanosoma brucei, T. brucei, 5 μM, 72 hours, normalized to DMSO control): 76%
- inhibition at 10 µM (Trypanosoma brucei; Trypanosoma brucei, T. brucei, 10 μM, 72 hours, normalized to DMSO control): 100%
- EC50 (Trypanosoma brucei; read-out: EC50 (T. brucei viability), T. brucei, 0.5 to 50 μM, 72 hours): 6500 nM
- fold increase in the levels of γH2A (T. brucei cells [1]; 16 hours): approximately 5 fold
- fold increase in VSG3 protein levels (T. brucei cells [1]; 24 hours): ~3 fold
- fold increase in the levels of γH2A (T. brucei cells [1]; 24 hours): ~7 fold
- EC50 (HEK293 cells; HEK293, 0.5 to 50 μM, 72 hours, estimated, curve did not reach bottom plateau): 18400 nM
- inhibition at 6.5 µM (HEK293 cells; HEK293, at 6.5 μM (EC50 to T. brucei)): < 20%
- inhibition at 50 µM (HEK293 cells; HEK293, at 50 μM, the maximum concentration): < 100%
- sub-G1 population (T. brucei cells [2]; 32-hour time point): ~45%
- cells that lost the bulk of their DNA (T. brucei cells [2]; by 48 hours): ~97%

B1: 5'Cy5-dT32 (ssDNA)
DNA: TTTTTTTTTTTTTTTTTTTTTTTTTTTTTTTT
- Kd (TcRPA1 DBD-AB T105S): 52.4 nM
- Kd (HsRPA1 DBD-AB): 48 nM
- Kd (LmexRPA1 DBD-AB): 12.6 nM
- binding result (TbRPA1 DBD-AB W188A [3]): no binding
- binding result (TbRPA1 DBD-AB F64A [4]): no binding
- Kd (TcRPA1 DBD-AB): 13.2 nM
- Kd [5]: 13.2 nM

B2: 5'IRDye800-dT32 (ssDNA)
DNA: TTTTTTTTTTTTTTTTTTTTTTTTTTTTTTTT
- binding result (TbRPA1 DBD-AB W188A [6]): no binding
- binding result (TbRPA1 DBD-AB F64A [7]): no binding
- binding result (TbRPA1 DBD-AB S105T): binds
